Target: human TrkA receptor (Homo sapiens (Human), UniProt P04629)
Assay: DiscoverX PathHunter TrkA functional assay
Format: cell-based
Conditions: U2OS cells expressing human TrkA-ProLink, Shc1-EA and p75NTR; compound 1 h, then NGF at ~80% of maximal response for 3 h; luminescence

Sequence of human TrkA receptor (P04629 33-796): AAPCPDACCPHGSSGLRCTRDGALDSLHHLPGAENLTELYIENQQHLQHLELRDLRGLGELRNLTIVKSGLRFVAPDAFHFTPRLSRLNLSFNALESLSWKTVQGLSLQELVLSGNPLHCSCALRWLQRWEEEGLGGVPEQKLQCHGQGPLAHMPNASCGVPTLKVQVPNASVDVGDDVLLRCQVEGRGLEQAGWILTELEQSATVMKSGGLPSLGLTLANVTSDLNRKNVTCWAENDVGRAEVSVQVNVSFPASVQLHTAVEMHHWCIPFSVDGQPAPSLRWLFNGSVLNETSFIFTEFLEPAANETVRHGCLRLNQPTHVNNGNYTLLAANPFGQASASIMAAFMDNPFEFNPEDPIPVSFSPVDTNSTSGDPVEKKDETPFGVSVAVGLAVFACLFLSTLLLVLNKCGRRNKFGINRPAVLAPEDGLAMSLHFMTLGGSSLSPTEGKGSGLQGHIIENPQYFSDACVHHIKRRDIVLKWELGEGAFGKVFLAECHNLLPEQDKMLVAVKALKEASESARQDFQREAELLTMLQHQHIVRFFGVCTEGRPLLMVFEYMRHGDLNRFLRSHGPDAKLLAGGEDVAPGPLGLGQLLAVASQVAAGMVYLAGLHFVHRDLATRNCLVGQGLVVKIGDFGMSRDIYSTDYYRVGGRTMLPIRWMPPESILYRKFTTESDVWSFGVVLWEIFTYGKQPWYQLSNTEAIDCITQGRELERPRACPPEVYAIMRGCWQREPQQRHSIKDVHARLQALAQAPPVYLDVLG

| SMILES | IC50 |
| --- | --- |
| Cn1ccc(-c2cc(C(=O)Nc3cc(Cc4nnn(C)n4)nn3-c3ccccc3)c(Cl)cc2C(F)(F)F)n1 [Compound 58, 2-chloro-5-(1-methyl-1H-pyrazol-3-yl)-N-{3-[(2-methyl-2H-tetrazol-5-yl)methyl]-1-phenyl-1H-pyrazol-5-yl}-4-(trifluoromethyl)benzamide] | 3.4 nM |
| Cc1nc(-c2ccccc2)c(NC(=O)c2ccc(C(F)(F)F)c(-c3ccn(C)n3)c2)n1C [Compound 14, N-(1,2-dimethyl-4-phenyl-1H-imidazol-5-yl)-3-(1-methyl-1H-pyrazol-3-yl)-4-(trifluoromethyl)benzamide] | 20 nM |
| Cn1ccc(-c2cc(C(=O)Nc3[nH]ncc3-c3ccccc3)c(Cl)cc2C(F)(F)F)n1 [Compound 45, 2-chloro-5-(1-methyl-1H-pyrazol-3-yl)-N-(4-phenyl-1H-pyrazol-5-yl)-4-(trifluoromethyl)benzamide] | 7 nM |
| Cn1ccc(-c2cc(C(=O)Nc3cc(Cc4nnnn4C)nn3-c3ccccc3)c(Cl)cc2C(F)(F)F)n1 [Compound 59, 2-chloro-5-(1-methyl-1H-pyrazol-3-yl)-N-{3-[(1-methyl-1H-tetrazol-5-yl)methyl]-1-phenyl-1H-pyrazol-5-yl}-4-(trifluoromethyl)benzamide] | 1.7 nM |
| Cn1ccc(-c2cc(C(=O)Nc3cn(C)nc3-c3ccccc3)c(F)cc2C(F)(F)F)n1 [Compound 65, 2-fluoro-N-(1-methyl-3-phenyl-1H-pyrazol-4-yl)-5-(1-methyl-1H-pyrazol-3-yl)-4-(trifluoromethyl)benzamide] | 4.5 nM |
| Cc1nc(-c2ccncc2)c(NC(=O)c2ccc(C(F)(F)F)c(-c3ccn(C)n3)c2)n1C [Compound 52, N-(1,2-dimethyl-4-pyridin-4-yl-1H-imidazol-5-yl)-3-(1-methyl-1H-pyrazol-3-yl)-4-(trifluoromethyl)benzamide] | 2100 nM |
| O=C(Nc1cc(-c2ccncc2)nn1-c1ccc(F)cc1)c1ccc(C(F)(F)F)c(-c2cccnc2)c1 [Compound 35, N-[1-(4-fluorophenyl)-3-pyridin-4-yl-1H-pyrazol-5-yl]-3-pyridin-3-yl-4-(trifluoromethyl)benzamide] | 1700 nM |

Now from value to compound:

| IC50 | SMILES |
| --- | --- |
| 0.76 nM | NC(=O)c1ccc(-c2cc(NC(=O)c3cc(-c4ncccn4)c(C(F)(F)F)cc3F)n(-c3ccc(F)cc3)n2)cc1 [Compound 81, N-[3-(4-carbamoylphenyl)-1-(4-fluorophenyl)-1H-pyrazol-5-yl]-2-fluoro-5-pyrimidin-2-yl-4-(trifluoromethyl)benzamide] |
| 6.6 nM | O=C(Nc1cc(Cn2cccn2)nn1-c1ccc(F)cc1)c1cc(-c2ncccn2)c(C(F)(F)F)cc1F [Compound 87, N-(3-((1H-pyrazol-1-yl)methyl)-1-(4-fluorophenyl)-1H-pyrazol-5-yl)-2-fluoro-5-(pyrimidin-2-yl)-4-(trifluoromethyl)benzamide] |
| 15 nM | O=C(Nc1cc(Cc2n[nH]c(=O)o2)nn1-c1ccc(F)cc1)c1cc(-c2ncccn2)c(C(F)(F)F)cc1F [Compound 113, 2-fluoro-N-(1-(4-fluorophenyl)-3-((5-oxo-4,5-dihydro-1,3,4-oxadiazol-2-yl)methyl)-1H-pyrazol-5-yl)-5-(pyrimidin-2-yl)-4-(trifluoromethyl)benzamide] |
| 2.4 nM | CNC(=O)Cc1cc(NC(=O)c2cc(-c3ccn(C)n3)c(C(F)(F)F)cc2F)n(-c2ccc(F)cc2)n1 [Compound 114, 2-fluoro-N-(1-(4-fluorophenyl)-3-(2-(methylamino)-2-oxoethyl)-1H-pyrazol-5-yl)-5-(1-methyl-1H-pyrazol-3-yl)-4-(trifluoromethyl)benzamide] |
| 3.7 nM | Cn1ccc(-c2cc(C(=O)Nc3cc(Cc4cc[nH]n4)nn3-c3ccc(F)cc3)ccc2C(F)(F)F)n1 [Compound 96, N-(3-((1H-pyrazol-3-yl)methyl)-1-(4-fluorophenyl)-1H-pyrazol-5-yl)-3-(1-methyl-1H-pyrazol-3-yl)-4-(trifluoromethyl)benzamide] |
| 240 nM | Cc1cc(-n2nc(CNCCO)cc2NC(=O)c2ccc(C(F)(F)F)c(-c3ccn(C)n3)c2)[nH]n1 [Compound 68, N-(3-{[(2-hydroxyethyl)amino]methyl}-5′-methyl-2′H-1,3′-bipyrazol-5-yl)-3-(1-methyl-1H-pyrazol-3-yl)-4-(trifluoromethyl)benzamide] |
| 1 nM | CC(O)c1cnc(-c2cc(NC(=O)c3cc(-c4ccn(C)n4)c(C(F)(F)F)cc3F)n(-c3ccc(F)cc3)n2)nc1 (single isomer, unassigned) [Compound 107, (S or R)-2-fluoro-N-(1-(4-fluorophenyl)-3-(5-(1-hydroxyethyl)pyrimidin-2-yl)-1H-pyrazol-5-yl)-5-(1-methyl-1H-pyrazol-3-yl)-4-(trifluoromethyl)benzamide] |
| 3.7 nM | Cn1ccc(-c2cc(C(=O)Nc3cc(Cn4ncnn4)nn3-c3ccccc3)ccc2C(F)(F)F)n1 [Compound 67, 3-(1-methyl-1H-pyrazol-3-yl)-N-[1-phenyl-3-(2H-tetrazol-2-ylmethyl)-1H-pyrazol-5-yl]-4-(trifluoromethyl)benzamide] |
| 14 nM | Cn1ccc(-c2cc(C(=O)Nc3cc(Cc4nnn(CCO)n4)nn3-c3ccc(F)cc3)ccc2C(F)(F)F)n1 [Compound 77, N-[1-(4-fluorophenyl)-3-{[2-(2-hydroxyethyl)-2H-tetrazol-5-yl]methyl}-1H-pyrazol-5-yl]-3-(1-methyl-1H-pyrazol-3-yl)-4-(trifluoromethyl)benzamide] |
